According to patent US7354915B2 (Wyeth, priority 2003, dated 2008):
Where “and” joins values, the source holds several entries; their conditions need not be identical. Equal values may be shown once.

Assays:
[1] = test system: rat uterine decidualization; assay: Rat decidualization assay; type: in vivo; conditions: ovariectomized female Sprague-Dawley rats; for EC50 for uterine weight (decidual response) / Estimated average EC50 (decidual response): s.c.; for EC50 for uterine weight (decidual response): once daily for seven days, individual studies (Exp); for Estimated average EC50 (decidual response): average of dose-response curves
Method: B. Rat decidualization assay • 1. […] Methods: • a. […] The animals were treated once daily for seven days. […] Dosing • Doses were prepared based upon mg/kg mean group body weight. In all studies, a control group receiving vehicle was included. […] The contralateral horn was not scratched and served as an unstimulated control. Approximately 24 hours following the final treatment, rats were sacrificed by CO2 asphyxiation and body weight measured. Uteri were removed and trimmed of fat. Decidualized (D-horn) and control (C-horn) uterine horns were weighed separately. • 3.
Body weight: Mean total animal body weight (default-kg)
Decidual response: [(D−C)/C]×100%

T47D cells = assay: T47D cell proliferation assay (BrdU incorporation); type: cell-based
Method: A. T47D cell proliferation assay • 1. Objective: • Determination of progestational and antiprogestational potency was performed by using a cell proliferation assay in T47D cells. A compound's effect on DAN synthesis in T47D cells was measured. • 2. Methods: • a. Reagents: • Growth medium: DMEM:F12 (1:1) (GIBCO, BRL) supplemented with 10% (v/v) fetal bovine serum (not heat-inactivated), 100 U/mL penicillin, […] streptomycin, and 2 mM GlutaMax (GIBCO, BRL). • Treatment medium: Minimum Essential Medium (MEM) (#51200-038GIBCO, BRL) phenol red-free supplemented with 0.5% charcoal stripped fetal bovine serum, 100 U/mL penicillin, […] streptomycin, and 2 mM GlutaMax (GIBCO, BRL). • b. Cell Culture: • Stock T47 D cells were maintained in growth medium. For BrdU incorporation assay, cells were plated in 96-well plates (Falcon, Becton Dickinson Labware) at 10,000 cells/well in growth medium. […] Cell Proliferation Assay: • At the end of BrdU labeling, the medium was removed and BrdU incorporation was measured using a cell proliferation ELISA kit (#RPN 250, Amersham Life Science) according to manufacturer's instructions. […] Then 25 μL of 1 M sulfuric acid was added to each well to stop color reaction and optical density read in a plate reader at 450 nm within 5 minutes. • 3. […] EC50 or IC50 values were calculated from the retransformed values. […]

Row | Structure (SMILES) | EC50 for uterine weight (decidual response) [1] | Estimated average EC50 (decidual response) [1] | other results
1 | CC(=O)[C@H]1CC[C@H]2[C@@H]3CCC4=CC(=O)CC[C@]4(C)[C@H]3CC[C@]12C [Progesterone] | 5.50 mg/kg, s.c. | – | –
2 | CC(=O)O[C@]1(C(C)=O)CC[C@H]2[C@@H]3C[C@H](C)C4=CC(=O)CC[C@]4(C)[C@H]3CC[C@@]21C [MPA, medroxyprogesterone acetate] | 0.42 mg/kg, s.c. and 0.39 mg/kg, s.c. (2×) | – | –
3 | CC#C[C@]1(O)CC[C@H]2[C@@H]3CCC4=CC(=O)CCC4=C3[C@@H](c3ccc(N(C)C)cc3)C[C@@]21C [RU486] | – | – | IC50 (T47D cells; read-out: IC50 (half-maximal decrease in trimegestone induced BrdU incorporation), antagonist mode in the presence of 0.03 nM trimegestone, individual studies (Exp)): 0.016 nM and 0.018 nM; IC50 for uterine weight (decrease in EC50 progesterone induced decidual response) ([1]; p.o., with progesterone 5.6 mg/kg, individual studies (Exp.)): 0.21 mg/kg, p.o. and 0.14 mg/kg, p.o.
4 | C#C[C@]1(O)CC[C@H]2[C@@H]3CCC4=CC(=O)CC[C@@H]4[C@H]3C(=C)C[C@@]21CC [3-Ketodesogestrel] | 0.10 mg/kg, s.c. and 0.06 mg/kg, s.c. and 0.11 mg/kg, s.c. | 0.10 mg/kg, s.c. | –
5 | C[C@H](O)C(=O)[C@@]1(C)CC[C@H]2[C@@H]3CCC4=CC(=O)CCC4=C3CC[C@@]21C [Trimegestone] | – | – | EC50 (T47D cells; agonist mode, individual studies (Exp), read-out: EC50 (half-maximal increase in BrdU incorporation)): 0.017 nM and 0.014 nM and 0.019 nM
6 | C#C[C@]1(O)CC[C@H]2[C@@H]3CCC4=CC(=O)CC[C@@H]4[C@H]3CC[C@@]21CC [Levonorgestrel] | 0.08 mg/kg, s.c. and 0.12 mg/kg, s.c. and 0.09 mg/kg, s.c. (2×) | 0.10 mg/kg, s.c. | –
